Patent publication US10195204B2, “Methods of treating hemoglobinopathies” (DUKE UNIVERSITY, priority 2011, dated 2019)

Assays:
Assay type in all cases: cell-based, human
[1] = test system: ERK1/2 phosphorylation in SS RBCs; experiment: ERK1/2 phosphorylation in SS RBCs, Western blot (phosphoERK normalized to total ERK)
Protocol: Aliquots of packed RBCs were treated with various reagents to affect cAMP signaling or protein phosphorylation. […] Treated RBCs were then washed 5 times with 4 ml PBS with Ca^2+ and Mg^2+. Normal RBCs were used as controls. Prior to adhesion assays, treated RBCs were labeled with PKH 26 red fluorescent cell linker kit (Sigma), following the manufacturer's instructions.
Treated packed RBCs were lysed with hypotonic buffer (5 mM Na2HPO4+1 mM EDTA+0.1% NaN3, pH 8) containing 2 mM phenylmethylsulphonylfluoride (PMSF, Sigma), phosphatase inhibitor cocktail (Sigma) and protease inhibitor cocktail (Sigma). Protein separation by polyacrylamide gel electrophoresis using equal amounts of total RBC membrane ghost proteins per lane, after correcting total protein measurements for residual hemoglobin content, and Western blot^19 using the appropriate Ab were then performed. Mouse 3T3/A31 fibroblast lysate was used as a ERK1/2 positive control for immunoblots. For total ERK1/2, membranes blotted with anti-phosphoERK Ab were stripped and reexposed to Western blotting using anti-ERK1/2 Ab. Bands were analyzed densitometrically using ImageJ software downloaded from the NIH website. PhosphoERK1/2 data were normalized according to total ERK1/2 and are presented as fold change in ERK phosphorylation.

[2] = test system: SS RBC adhesion to HUVECs; experiment: Flow chamber adhesion of SS RBCs to non-activated HUVECs; settings: for mean decrease in SS RBC adhesion after 30 min exposure: 30 min vs 1 min epinephrine
Protocol: Cells were then washed three times with 5 ml PBS with Ca^2+ and Mg^2+. Prior to adhesion assays, washed treated SS RBCs were labeled with PKH 26 red fluorescent cell linker kit (Sigma-Aldrich, St. Louis, Mo.), following the manufacturer's instructions. […] The flow chamber was mounted on the stage of an inverted phase contrast microscope (Diaphot, Nikon Inc., Melville, N.Y.) connected to a thermoplate (Tokai Hit Co., Ltd., Japan) set at 37° C. […] Before exposure to flow, a minimum of three fields at each of seven different locations along a line oriented normal to future flow were examined for the total number of fluorescent cells. Fluid flow (HBSS with Ca^2+, Mg^2+) was then started using a calibrated syringe pump. After exposure to flow, the fields were again examined and the number of adherent cells counted. The fraction of adherent cells was presented as (number of cells attached after exposure to flow)/(cells present per field before flow). The wall shear stress was calculated as: [formula] τw=wall shear stress (dyne/cm^2); Q=volumetric flow rate (cm^3/s); μ is media viscosity, w is the width of the flow channel, and H(x) is the height of the flow chamber as a function of position along the microscope slide. Several investigators have shown that blood flow in small vessels may be continuous, with shear stresses of 1-2 dynes/cm^2, or flow may be intermittent. Our data were obtained using both intermittent and continuous flow conditions.

[3] = test system: ICAM-4 (LW) phosphorylation; experiment: 32P labeling, ICAM-4 immunoprecipitation and detection of phosphorylation in SS RBCs
Protocol: Cells were then washed 4 times. ICAM-4 protein immunoprecipitation, and total and phospho-ICAM-4 detection were performed as previously described in detail.^4 To further confirm that the immunoprecipitates were specific for ICAM-4, anti-ICAM-4 mAb and the negative control immunoglobulin P3 were used to immunoprecipitate ICAM-4 from non-radiolabeled SS RBCs incubated in the presence or absence of epinephrine. Blots were then immunostained with anti-ICAM-4 mAb.

[4] = test system: glycophorin A phosphorylation; experiment: 32P labeling, glycophorin A immunoprecipitation and phosphorylation in SS RBCs
Description: Glycophorin A phosphorylation and immunoprecipitation. […] Cells were then washed 4 times. […] Blots were immunostained with anti-glycophorin A mAb.

[5] = shear stress 2 dynes/cm^2, intermittent flow
[6] = epinephrine in the presence of SPI

## N#CC(=C(/N)Sc1ccccc1N)/C(C#N)=C(\N)Sc1ccccc1N [U0126]
[1]; SS RBCs
  effect on forskolin-induced ERK1/2 phosphorylation: prevented
[1]; SS RBCs pre-incubated with inhibitor, then 20 nM epinephrine 1 min
  effect on epinephrine-induced ERK1/2 phosphorylation: significantly inhibited
[1]; SS RBCs, 2 μg/ml PTx
  effect on PTx-induced ERK phosphorylation: blocked
[2]; U0126 alone
  inhibition of SS RBC adhesion to non-activated HUVECs vs sham-treated SS RBCs: 91±4.6%
[2]; shear stress 2 dynes/cm^2, compared to forskolin alone
  inhibition of forskolin-increased SS RBC adhesion to HUVECs: 83±4%
[2]; [5]
  effect on epinephrine-induced SS RBC adhesion to HUVECs: completely inhibited
[3]; SS RBCs preincubated with inhibitor
  effect on combined effect of epinephrine and SPI on ICAM-4 phosphorylation: significantly decreased
[4]; SS RBCs pre-incubated with 10 μM U0126 for 1 h
  effect on combined effect of epinephrine and SPI on glycophorin A phosphorylation: significantly decreased

## CNC[C@H](O)c1ccc(O)c(O)c1 [epinephrine]
[1]
  ERK phosphorylation vs 1 min exposure: decreased
  ERK phosphorylation vs sham-treated: markedly increased
  fold increase in ERK phosphorylation: 2.1±0.1 fold
  increase in ERK phosphorylation above basal levels: 2±0.17 fold
  patients whose SS RBCs exhibited more than 1.5-fold elevation in ERK phosphorylation (responders): 40%
[2]; constant flow
  mean decrease in SS RBC adhesion after 30 min exposure: 73±4.7%
[2]; intermittent flow
  mean decrease in SS RBC adhesion after 30 min exposure: 56±1.5%
[2]; [5]
  effect on SS RBC adhesion to HUVECs: significantly up-regulated
[3]; epinephrine 1 min in the presence of SPI (FIG. 4F)
  ICAM-4 phosphorylation over sham-treated cells: 1.84±0.15 fold
[3]; epinephrine 30 min in the presence of SPI
  ICAM-4 phosphorylation vs 1 min exposure: significantly diminished
[3]; [6]
  increase in ICAM-4 phosphorylation over sham-treated SS RBCs: 7.4±1.07 fold
[4]; [6]
  increase in glycophorin A phosphorylation over sham-treated SS RBCs: 2.93±0.35 fold
